Test results: patent US9339486B2, “Heterocyclic modulators of cannabinoid receptors” (THE CLEVELAND CLINIC FOUNDATION, priority 2008, dated 2016)
“Also recorded” adds a separate entry of the source.

Legend:
CB1 = CB1 (Homo sapiens (Human), UniProt P21554); experiment: CB1 Binding Assay ([3H]CP 55940, cell membrane homogenates)
Experimental: After being incubated, the samples were filtered rapidly under vacuum through glass fiber filters (GF/B; Packard) presoaked with 0.3% PEI and rinsed several times with ice-cold buffer containing 50 mM Tris HCl (pH 7.4) and 0.5% BSA using a 96-sample cell harvester (Unifilter; Packard). The filters were dried then counted for radioactivity in a scintillation counter (Topcount; Packard) using a scintillation cocktail (Microscint 0; Packard). The results were expressed as a percentage of the inhibition of the control radioligand-specific binding. The reference standard compounds were tested in each experiment at several concentrations to obtain a competition curve from which its IC50 was calculated.

[1] = tested on: spinal nerve ligation neuropathic pain model; experiment: Tactile allodynia in SNL neuropathic pain model (von Frey); assay type: in vivo, rat
Experimental: Adult, male Sprague Dawley (Harlan Sprague Dawley, Indianapolis, Ind.) rats weighing 120-150 gm were used in experimental procedures approved by the Animal Care and Use Committee of the M. D. Anderson Cancer Center, University of Texas. Animals were housed three per cage on a 12/12 hr light/dark cycle with water and food pellets available ad libitum.
All surgical procedures were performed under deep isoflurane anesthesia in 100% 02. The spinal nerve ligation (SNL) was performed as described previously. Kim, S. H., et al., An Experimental Model for Peripheral Neuropathy Produced by Segmental Spinal Nerve Ligation in the Rat, Pain, 1992, 50:355-63. Briefly, a midline incision above the lumbar spine exposed the left L6 transverse process. The process was then removed, the left L5 and L6 spinal nerves were isolated, and both nerves were tightly ligated with 6-0 silk. Prophylactic antibiotic (norfloxacin 5 mg/kg subcutaneously) and analgesic (buprenorphine, 0.2-0.5 mg/kg, or morphine, 2.5 mg/kg, given subcutaneously) were administered once daily for 3 days. All the experiments were conducted 10-14 days after spinal nerve ligation.
Rats were placed in a compartment with a wire mesh bottom and allowed to acclimate for a minimum of 30 min before testing. Mechanical sensitivity was assessed using a series of Von Frey filaments with logarithmic incremental stiffness (0.41, 0.70, 1.20, 2.00, 3.63, 5.50, 8.50, and 15.1 g) (Stoelting, Wood Dale, Ill.) as previously described, and 50% probability withdrawal thresholds were calculated with the up-down method. Chaplan, S. R., et al., Quantitative Assessment of Tactile Allodynia in the Rat Paw, J. Neurosci. Methods, 1994, 53:55-63; Dixon, W., The Up-and-Down Method for Small Samples, J. Am. Stat. Assoc., 1965, 60:967-78. In brief, beginning with the 2.0-g probe, filaments were applied to the plantar surface of a hind paw for 6-8 s, in an ascending or descending order after a negative or positive withdrawal response, respectively. Six consecutive responses from the first change in the response were used to calculate the withdrawal threshold (in grams). In cases where response thresholds fell outside the range of detection, 15.00 and 0.25 g were, respectively, assigned for continuous negative or positive responses to the limit of stimuli. The percent maximal possible effect (% MPE) was calculated as ([postdrug threshold−baseline threshold]/[cutoff threshold (15 g)−baseline threshold])×100.
Statistical analyses were carried out using BMDP 2007 (Statistical Solutions, Saugus, Mass., USA) and Graph Pad Prism (version 4.03; Graph Pad Software Inc., San Diego, Calif., USA). Data were analyzed using one-way ANOVA, repeated measures ANOVA, or t-test where appropriate. If ANOVA was significant, Tukey-Kramer post hoc analysis was used for multiple group comparison. Area under the curve (AUC) was calculated using the trapezoidal rule. The results are presented as mean±s.e. mean and were considered significant at P<0.05. Analyses of the dose-response curves and statistics were obtained using the pharmacologic software programs of Tallarida and Murray and included calculation of the ED50 values and their 95% confidence intervals (CI). Tallarida, R. J., et al., Manual of Pharmacologic Calculations With Computer Programs, Second ed. New York: Springer-Verlag, 1987.

[2] = target: hCB1 (human CB1) receptors (Homo sapiens (Human), UniProt P21554); experiment: GTPγ[35S] functional assay, CHO membrane extracts hCB1; assay type: biochemical
Experimental: Functional activity was evaluated using GTPγ[^35S] assay in CHO membrane extracts expressing recombinant hCB1 (human CB1) receptors or hCB2 (human CB2) receptors. The assay relies on the binding of GTPγ[^35S], a radiolabeled nonhydrolyzable GTP analogue, to the G protein upon binding of an agonist of the G-protein-coupled receptor. In this system, agonists stimulate GTPγ[^35S] binding whereas neutral antagonist have no effect and inverse agonists decrease GTPγ[^35S] basal binding.
The compound of Example 3 was solubilized in 100% DMSO at a concentration of 10 mM within 4 hours of the first testing session (master solution). A predilution for the dose response curve was performed in 100% DMSO and then diluted 100 fold in assay buffer at a concentration 2 fold higher than the concentration to be tested. […] For GTPγS membranes were mixed with GDP diluted in assay buffer to give 30 μM solution (volume:volume) and incubated for at least […] on ice. In parallel, GTPγ[^35S] (GE Healthcare, Catalogue number SJ1308) were mixed with the beads (PVT-WGA (GE Healthcare, RPNQ001)), diluted in assay buffer at 50 mg/ml (0.5 mg/10 μl) (volume:volume) just before starting the reaction. […] Then the plates were centrifuged for 10 min at 2000 rpm and counted for 1 min/well with a PerkinElmer TopCount reader. […]

[3] = CB1, test concentration 1.0E−05 (MD)

CB1, sequence (P21554 whole entry): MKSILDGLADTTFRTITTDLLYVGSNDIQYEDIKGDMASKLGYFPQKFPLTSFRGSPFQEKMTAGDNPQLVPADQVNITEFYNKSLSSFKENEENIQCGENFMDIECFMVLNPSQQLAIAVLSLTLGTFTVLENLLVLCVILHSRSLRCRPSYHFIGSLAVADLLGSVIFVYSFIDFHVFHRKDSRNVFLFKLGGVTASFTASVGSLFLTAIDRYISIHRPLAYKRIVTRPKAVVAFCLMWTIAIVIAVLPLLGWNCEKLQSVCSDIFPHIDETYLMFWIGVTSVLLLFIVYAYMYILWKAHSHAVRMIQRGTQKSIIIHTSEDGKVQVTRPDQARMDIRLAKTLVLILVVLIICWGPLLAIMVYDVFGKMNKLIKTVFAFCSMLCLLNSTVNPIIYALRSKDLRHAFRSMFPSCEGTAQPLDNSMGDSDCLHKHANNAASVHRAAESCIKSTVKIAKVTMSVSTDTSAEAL

For `CC1(Cc2ccccc2)COc2cc(C(=O)N3CCCCC3)ccc21` (stereo not shown) [Example 3, 3-benzyl-3-methyl-2,3-dihydrobenzofuran-6-carboxylic acid-piperidine amide], the “% Inhibition of Control Specific Binding” value (CB1; [3]) was 71%, the “% of Control Specific Binding Mean” value (CB1; [3]) was 29% and the “% of Control Specific Binding 1st” value (CB1; CB1, test concentration 1.0E−05 (MD), first replicate) was 22%. For the same compound, the “% of Control Specific Binding 2nd” value (CB1; CB1, test concentration 1.0E−05 (MD), second replicate) was 36%, the “% Inhibition of Control Specific Binding CB1” value (CB1; as repeated in Table 3) was 71% and the “antiallodynic effect compared with 15 mg/kg AM1241 i.p.” value ([1]; 10 mg/kg i.p.) was “significantly (P<0.001) greater”. The ED50 ([1]; Rattus norvegicus, ip, 0.5 h, i.p., at 30 min, SNL model, read-out: ED50 anti-allodynic effect (tactile allodynia)) was 7.48 mg/kg, the “effect of AM251 pretreatment (5 mg/kg i.p.) on antiallodynic effects of the compound” value ([1]; compound 10 mg/kg i.p., AM251 15 min prior) was “did not affect the antiallodynic effects; also recorded: had no effect” and the “effect of AM630 pretreatment (5 mg/kg i.p.) on antiallodynic effects of the compound” value ([1]; compound 10 mg/kg i.p., AM630 15 min prior) was “antagonized the effects; also recorded: reversed the antiallodynic effects; also recorded: significantly reversed”. The “effect of naloxone pretreatment (10 mg/kg i.p.) on antiallodynic activity” value ([1]; compound of Example 3 10 mg/kg i.p., naloxone 15 min prior) was “did not affect the antiallodynic effects; also recorded: had no effect”, the “effect on tactile allodynia” value ([1]; i.p. 5, 10, 15 mg/kg) was “attenuated tactile allodynia in a dose-related manner” and the “agonistic or antagonistic activities at hCB1 receptors” value [2] was “did not result in any agonistic or antagonistic activities”. For the same compound, the EC50 ([2]; read-out: Agonist EC50 (mean ± s.e. mean) GTPγ[35S] functional assays hCB1) was > 10 µM.
